Measurements reported in patent US20050148069A1, “IGF-1 instructs multipotent adult CNS neural stem cells to an oligodendroglial lineage” (priority 2003, published 2005).

System: adult hippocampus-derived neural progenitor cells
Test: in vitro differentiation analysis of neural progenitor cells (immunocytochemistry for lineage markers)
Type: cell-based, rat
Details: for differentiation of neural progenitor cells into oligodendrocytes: 500 ng/ml; for differentiation of neural progenitor cells into oligodendrocytes / GFAP+ astrocytes: 4 days; for rank order of potency for oligodendrocyte differentiation: different concentrations (20-1000 ng/ml); for GFAP+ astrocytes: each at 500 ng/ml
Protocol: The neural progenitor cells isolated from the hippocampus of female Fischer 344 used in this study have been characterized previously (Gage et al., 1995; Palmer et al., 1997). The whole brain-derived neural stem cells from PIO ICR mice were isolated and cultured according to the methods as described, with slight modifications. Cells were cultured as previously described (Gage et al., 1995; Ray et al., 1993). Cells between passages 10 and 20 were used for in vitro differentiation analyses. To induce differentiation, cells were plated into 4-well chamber slides at a density of 55,000-75,000 cells per well and were allowed to proliferate in N2-supplemented (Invitrogen) DMEM:F12 (Omega Scientific) medium containing 20 ng/ml FGF-2 (PeproTech, Inc.) for 24 hours. FGF-2 was then withdrawn and cells were subsequently treated with differentiation media. […] For IGF-induction experiments, cells were trypsinized, washed with 1× PBS, and plated into insulin-free N2 medium. […] In some cultures, BrdU (2.5 μM, Sigma) was added to label dividing cells, and Q-VD-OPh (2 μM, Enzyme Systems Products) was added to prevent apoptosis.
Cells were fixed with 4% paraformaldehyde, followed by immunocytochemical staining as described (Palmer et al., 1999). Labeled cells were visualized using a Nikon E800 upright microscope or a Nikon E600 inverted microscope (Nikon Inc.) and a Spot RT CCD camera (Diagnostic Instruments Inc.). 4′,6-diamidino-2-phenylindole (DAPI) was used to identify individual cells. Quantification of cell phenotypes was with StereoInvestigator (MicroBrightfield Inc.); for each marker, 500-1000 cells were sampled systematically from standardized fields at 40×magnification. For quantification of live/dead cells, images were taken of cultures live-stained with propidum iodide (1 μg/ml; Molecular Probes) and Hoescht 33342 (1 μg/ml; Sigma) at 10×magnification, and cells were counted using Image-Pro (Media Cybernetics). The following primary antibodies were used: rabbit anti-Tuj1 (1:7500;Covance), mouse anti-RIP (1:25-1:75; Hybridoma Bank); guinea pig anti-GFAP (1:500-1:2500; Advanced Immunochemical, Inc.); rabbit anti-MBP (1:500; Chemicon International Inc.), rat anti-BrdU (1:400; Accurate). Secondary antibodies were all from Jackson ImmunoResearch and used at 1:250 dilution. The detection of BrdU in cultured cells required treatment in 2 N HCL at 37° C. for 30 min (Palmer et al., 1999). All experiments were independently replicated at least 3 times.

Row | Molecule | effects on proliferation or differentiation (2 μM Q-VD-OPh, 2-day cultures) | cell survival (DAPI-stained nuclei, persistence of cells) (2 μM Q-VD-OPh, 2-day cultures, insulin-free N2 medium) | RIP+ differentiation (2 μM Q-VD-OPh, no IGF-I, 2-day cultures, insulin-free N2 medium) | differentiation of neural progenitor cells into oligodendrocytes | rank order of potency for oligodendrocyte differentiation | GFAP+ astrocytes
1 | CC(C)[C@H](NC(=O)c1ccc2ccccc2n1)C(=O)N[C@@H](CC(=O)O)C(=O)COc1c(F)cccc1F [Q-VD-OPh, reference compound] | without obvious effects on proliferation or differentiation | promoted the majority of the cells to survive | approximately 2% | – | – | –
2 | IGF-II: human recombinant IGF-II (R&D Systems) | – | – | – | could also promote the preferential differentiation of neural progenitor cells into oligodendrocytes | IGF-I>IGF-II>insulin | few to no GFAP+ astrocytes
3 | insulin: insulin (Sigma) | – | – | – | could also promote the preferential differentiation of neural progenitor cells into oligodendrocytes | IGF-I>IGF-II>insulin | few to no GFAP+ astrocytes
